{"source": "ChEMBL document CHEMBL4396864", "about": "“Small-Molecule Modulators of the Hypoxia-Inducible Factor Pathway: Development and Therapeutic Applications” (J Med Chem, 2019)", "key": {"[1]": {"target": "Hypoxia-inducible factor 1-alpha (Homo sapiens, UniProt Q16665)", "sequence (Q16665 whole entry)": "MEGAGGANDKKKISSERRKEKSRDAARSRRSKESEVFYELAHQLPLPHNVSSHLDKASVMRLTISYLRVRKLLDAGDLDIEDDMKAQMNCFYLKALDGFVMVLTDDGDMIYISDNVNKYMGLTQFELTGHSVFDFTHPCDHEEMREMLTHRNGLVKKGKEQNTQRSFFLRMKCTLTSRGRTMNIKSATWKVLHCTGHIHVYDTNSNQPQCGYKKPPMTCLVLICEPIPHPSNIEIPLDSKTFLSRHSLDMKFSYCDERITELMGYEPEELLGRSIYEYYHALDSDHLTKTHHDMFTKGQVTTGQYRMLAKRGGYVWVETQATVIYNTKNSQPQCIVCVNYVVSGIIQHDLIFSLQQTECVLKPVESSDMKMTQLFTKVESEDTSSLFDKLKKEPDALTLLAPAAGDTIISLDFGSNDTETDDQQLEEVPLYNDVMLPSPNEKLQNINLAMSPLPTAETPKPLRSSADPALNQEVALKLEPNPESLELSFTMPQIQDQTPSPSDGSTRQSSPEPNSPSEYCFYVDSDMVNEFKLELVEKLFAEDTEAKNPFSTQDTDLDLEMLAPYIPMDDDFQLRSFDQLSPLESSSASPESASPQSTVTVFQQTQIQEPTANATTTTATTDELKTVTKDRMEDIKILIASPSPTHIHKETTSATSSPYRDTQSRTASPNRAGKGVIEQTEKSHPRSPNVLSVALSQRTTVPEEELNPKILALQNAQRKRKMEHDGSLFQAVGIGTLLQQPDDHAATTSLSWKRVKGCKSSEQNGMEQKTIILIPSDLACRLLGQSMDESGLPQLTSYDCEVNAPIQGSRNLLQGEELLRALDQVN", "test": "Inhibition of HIF-1alpha in human U373 cells", "format": "cell-based, U-373MG ATCC"}, "Hep 3B2": {"tested_on": "Hep 3B2", "test": "Downregulation of VEGF protein level in human Hep3B cells after 8 hrs by ELISA", "format": "functional, cell-based"}, "[2]": {"target": "Histone acetyltransferase p300 (Homo sapiens, UniProt Q09472)", "sequence (Q09472 whole entry)": "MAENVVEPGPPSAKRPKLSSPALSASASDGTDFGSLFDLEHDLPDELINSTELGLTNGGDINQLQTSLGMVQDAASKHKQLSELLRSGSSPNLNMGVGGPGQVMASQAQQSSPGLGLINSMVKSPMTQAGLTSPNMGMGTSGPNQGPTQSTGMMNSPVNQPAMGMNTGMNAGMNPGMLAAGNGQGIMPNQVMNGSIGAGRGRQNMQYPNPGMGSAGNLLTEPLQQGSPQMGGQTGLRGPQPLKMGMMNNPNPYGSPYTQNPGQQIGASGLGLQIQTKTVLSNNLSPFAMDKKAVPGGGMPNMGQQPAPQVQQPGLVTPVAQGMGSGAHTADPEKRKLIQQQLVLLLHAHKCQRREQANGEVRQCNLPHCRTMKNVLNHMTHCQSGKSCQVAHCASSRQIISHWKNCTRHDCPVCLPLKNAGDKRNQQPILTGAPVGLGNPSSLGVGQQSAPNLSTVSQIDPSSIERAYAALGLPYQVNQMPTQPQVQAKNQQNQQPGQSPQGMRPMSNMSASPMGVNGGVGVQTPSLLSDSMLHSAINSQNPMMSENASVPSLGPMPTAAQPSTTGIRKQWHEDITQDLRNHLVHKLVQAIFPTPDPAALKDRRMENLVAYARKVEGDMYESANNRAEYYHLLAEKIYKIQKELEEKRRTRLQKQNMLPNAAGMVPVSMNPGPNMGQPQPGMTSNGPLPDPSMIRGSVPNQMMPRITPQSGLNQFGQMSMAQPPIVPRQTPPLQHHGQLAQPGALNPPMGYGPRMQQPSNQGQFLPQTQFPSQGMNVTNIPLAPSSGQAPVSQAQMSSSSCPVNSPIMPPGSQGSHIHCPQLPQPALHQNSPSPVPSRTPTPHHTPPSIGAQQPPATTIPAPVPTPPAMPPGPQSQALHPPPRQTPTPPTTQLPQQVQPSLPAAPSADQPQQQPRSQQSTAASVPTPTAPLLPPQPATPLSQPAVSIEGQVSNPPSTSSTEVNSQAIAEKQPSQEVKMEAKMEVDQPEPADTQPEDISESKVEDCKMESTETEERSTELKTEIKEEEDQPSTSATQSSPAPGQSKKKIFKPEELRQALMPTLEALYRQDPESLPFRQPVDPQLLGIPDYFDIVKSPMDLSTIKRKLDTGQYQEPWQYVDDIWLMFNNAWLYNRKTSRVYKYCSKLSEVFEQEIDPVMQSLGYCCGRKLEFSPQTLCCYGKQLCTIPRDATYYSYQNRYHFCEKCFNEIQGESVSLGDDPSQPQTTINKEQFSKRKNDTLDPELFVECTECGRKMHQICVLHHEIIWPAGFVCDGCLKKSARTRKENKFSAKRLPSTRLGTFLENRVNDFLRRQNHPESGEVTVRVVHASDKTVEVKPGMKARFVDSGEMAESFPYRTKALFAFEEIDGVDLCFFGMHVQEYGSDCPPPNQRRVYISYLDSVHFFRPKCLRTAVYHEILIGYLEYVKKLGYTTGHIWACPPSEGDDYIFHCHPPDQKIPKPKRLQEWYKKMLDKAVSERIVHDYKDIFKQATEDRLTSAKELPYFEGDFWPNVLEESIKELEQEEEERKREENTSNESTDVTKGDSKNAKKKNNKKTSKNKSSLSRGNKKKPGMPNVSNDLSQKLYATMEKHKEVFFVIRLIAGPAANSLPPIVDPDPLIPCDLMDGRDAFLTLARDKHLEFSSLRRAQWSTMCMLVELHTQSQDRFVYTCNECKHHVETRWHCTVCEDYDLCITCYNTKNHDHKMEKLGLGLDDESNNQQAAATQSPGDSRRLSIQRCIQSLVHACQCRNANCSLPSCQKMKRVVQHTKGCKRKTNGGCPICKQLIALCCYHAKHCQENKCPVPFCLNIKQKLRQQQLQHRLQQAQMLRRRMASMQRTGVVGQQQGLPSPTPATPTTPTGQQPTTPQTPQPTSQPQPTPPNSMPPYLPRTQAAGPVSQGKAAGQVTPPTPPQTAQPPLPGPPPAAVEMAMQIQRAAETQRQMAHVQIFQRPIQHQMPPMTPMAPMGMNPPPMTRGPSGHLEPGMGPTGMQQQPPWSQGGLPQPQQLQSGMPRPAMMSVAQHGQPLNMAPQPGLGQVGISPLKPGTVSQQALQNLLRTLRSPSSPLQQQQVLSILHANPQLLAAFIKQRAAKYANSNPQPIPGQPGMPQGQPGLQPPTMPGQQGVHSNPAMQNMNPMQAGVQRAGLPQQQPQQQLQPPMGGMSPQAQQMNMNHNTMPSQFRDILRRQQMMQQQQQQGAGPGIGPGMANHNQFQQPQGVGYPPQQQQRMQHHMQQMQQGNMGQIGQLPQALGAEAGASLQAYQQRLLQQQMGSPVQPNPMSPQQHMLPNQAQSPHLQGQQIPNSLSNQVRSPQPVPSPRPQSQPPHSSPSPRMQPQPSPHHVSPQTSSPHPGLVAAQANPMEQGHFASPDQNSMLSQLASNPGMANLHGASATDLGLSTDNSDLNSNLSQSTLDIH", "test": "Binding affinity to p300 (unknown origin)"}, "[3]": {"target": "T1, CREB-binding protein/Histone acetyltransferase p300 (Homo sapiens, UniProt Q09472+Q92793)", "test": "Inhibition of GST-tagged p300 (unknown origin)/CBP (unknown origin) protein-protein interaction", "format": "protein assay"}, "[4]": {"target": "T1, CREB-binding protein/Histone acetyltransferase p300", "test": "Inhibition of GST-tagged p300 (unknown origin)/CBP (unknown origin) protein-protein interaction by fluorescence polarization assay"}}}
{"compound": "COc1cc([C@@H]2c3cc4c(cc3[C@@H](Nc3ccc([N+](=O)[O-])cc3)[C@H]3COC(=O)[C@H]23)OCO4)cc(OC)c1O", "values": [{"measurement": "IC50", "setting": "[1]", "value": "1 to 5", "unit": "nM"}]}
{"compound": "CN1C(=O)[C@@]23C[C@]4([C@]56C[C@@]78SS[C@@](CO)(C(=O)N7[C@H]5Nc5ccccc56)N(C)C8=O)c5ccccc5N[C@@H]4N2C(=O)[C@]1(CO)SS3", "note": "[CHAETOCIN]", "values": [{"measurement": "IC50", "setting": "Hep 3B2", "value": 100, "unit": "nM"}]}
{"compound": "CC(C)C[C@H](NC(=O)[C@H](C)NC(=O)[C@H](CCCNC(=N)N)NC(=O)[C@H](C)N1CC/C=C\\CC(=O)N[C@@H](CCC(=O)O)C(=O)N[C@@H](CC(C)C)C1=O)C(=O)N[C@@H](CC(=O)O)C(=O)N[C@@H](CCC(N)=O)C(N)=O", "values": [{"measurement": "Kd", "setting": "[2]", "value": 690, "unit": "nM"}]}
{"compound": "CC(C)Cc1cc(CNC(=O)N2CCN(CC(=O)Nc3ccccc3Cl)CC2)nn1-c1ccccc1.Cl", "values": [{"measurement": "IC50", "setting": "[3]", "value": 107000, "unit": "nM"}]}
{"compound": "CN1C(=O)[C@]2(Cc3ccc(CCc4ccc(C[C@@]56SS[C@@](CO)(C(=O)N5C)N(C)C6=O)cc4)cc3)SS[C@@]1(CO)C(=O)N2C", "values": [{"measurement": "IC50", "setting": "[4]", "value": 600, "unit": "nM"}]}
{"compound": "CN1C(=O)[C@]2(Cc3ccc(C[C@@]45SS[C@@](CO)(C(=O)N4C)N(C)C5=O)cc3)SS[C@@]1(CO)C(=O)N2C", "values": [{"measurement": "IC50", "setting": "[4]", "value": 1500, "unit": "nM"}]}
